Results reported in patent US5602156A, “Method for inhibiting metalloproteinase expression” (The United States of America as represented by the …, priority 1994, dated 1997).
“Also recorded” adds a separate entry of the source.

What was measured:
[1] = tested on: gelatinase activity of the metalloproteinases; test: Zymogram slices incubated with compound 1 or calcium chelators in the activating buffer (direct inhibition of enzyme); assay type: biochemical, human
Protocol: See, Felder, et al., J. Pharm. Exp. Therapeut. 257:967-971 (1991) and unpublished observations by the inventors.
Gelatin zymography was carded out using control conditioned media from A2058 cells and HT1080 cells in the absence of compound 1. Zymogram slices were incubated in low salt collagenase buffer with control (DMSO 0.1%), an inhibitory dose of compound 1 (20 μM), or the calcium chelators EGTA (10 mM) and EDTA (10 mM). […] See, Brown, et al., Cancer Res. 50:6184-6191 (1990). […] Lane 1 for each of the zymograms corresponds to A2058 while lane 2 corresponds to HT1080.

[2] = tested on: receptor-operated and voltage-gated calcium influx; details: cited from earlier work
MMP-2 [3] = test: Northern blot of MMP-2 mRNA from A2058 cells; assay type: cell-based, human; details: 2 μM; for inhibition in MMP-2 transcription: corrected for loading (GAPDH)
Protocol: (§1) This example illustrates the effect of compound 1 on MMP-1 and MMP-2 mRNA from A2058 cells using Northern blot analysis.
(§2) Total cytoplasmic RNA was purified from A2058 cells using cesium chloride density centrifugation. Cells were treated with DMSO vehicle (0.05 %) or compound 1 (2 μM) for 24 or 48 hr. Total RNA yields from treated and control cells (μg/10^6 cells) were similar. Aliquots (5 μg) of total RNA were denatured and separated on formaldehyde-1% agarose slab gels, passively transferred to GeneScreen, and crosslinked using ultraviolet light exposure. RNA was hybridized in buffer (50% deionized formamide, 5x SSC, 10 mM Tris HCl pH 7.5, 1x Denharts solution without albumin, 1.0% SDS, and 0.125 mg/mL salmon sperm DNA) containing 10^6 counts/mL of ^32 P- labeled probe of either MMP-2, MMP-1, or with GAPDH which was used as a measure of RNA load. Probes were labeled to high specific activity with ^32 P-dCTP using a random primer labeling protocol. The cDNA probes for the MMP-2, MMP-1, and GAPDH have been described. See, Brown, et al., Cancer Res. 50:6184-6191 (1990); Templeton, et at., Cancer Res. 50:5431-5437 (1990); and Fort, et al., Nucleic Acids Res. 13:1431-1441 (1985). Radiolabeled bands were quantitated using laser densitometric analysis of autoradiography bands. Numeric data are presented as percent inhibition of IVase or interstitial collagenase expression corrected for loading using GAPDH.

MMP-1 = test: Northern blot of MMP-1 mRNA from A2058 cells; assay type: cell-based, human; details: 2 μM
Protocol: as §1
as §2, with “Numeric data are presented as percent inhibition of IVase or interstitial collagenase expression corrected for loading using GAPDH.” left out

MMP-2 [4] = test: Western immunoblot of conditioned media from compound 1 and TGF-β1 treated cells; assay type: cell-based, human; details: HT1080 and A2058; 2 μM, 24 and 48 hr
Protocol: (§3) A2058 and HT1080 conditioned media samples were concentrated 10-fold using ultrafiltration units excluding material of less than 10 or 30 kDa in molecular weight. Aliquots of 15 μL were electrophoresed on 4-20% gradient PAGE gels, electrically transferred to membranes and immunoblotted with specific polyclonal antibody to proMMP-2. This antibody, made to the MMP-2/TIMP-2 complex recognizes the latent and activated MMP-2 species and crossreacts with TIMP-2 (21 kDa).
(§4) A2058 and HT1080 cells were incubated with compound 1 (2 μM), with or without TGF-β1 (5 ng/mL) for 24 and 48 hours prior to harvest of conditioned media. Aliquots were subjected to gelatin zymography as described in Example 1. Known concentrated conditioned medium from HT1080 cells was used for identification of the gelatinase species (92 kDa, gelatinase B/MMP-9; 72 kDa, gelatinase A/MMP-2 latent form; 65 kDa intermediate and 62 kDa activated forms of MMP-2).
Lane 1 is the control resulting from treatment of the cells with 0.1% DMSO. Lanes 2 and 3 correspond to those cells which are treated with 2 μM compound 1 in the absence of TGF-β1 for 24 and 48 hours, respectively. Lane 4 corresponds to cells which have been treated with TGF-β1 in the absence of compound 1. Lane 5 corresponds to cells which have been treated with TGF-β1 for 48 hours with compound 1 being added to the incubation mixture for the final 24 hours. […]

[5] = tested on: proliferation and metastasis; details: cited from earlier work
MMP-9 = test: Gelatin zymography of HT1080 cells, compound 1 with or without TGF-β1 (densitometry), 92 kDa; assay type: cell-based, human; details: control band = 100%
Protocol: (§5) Conditioned media for zymogram and Western blot analysis were produced under serum-free conditions. Cells (2 million) were plated in 25 cm^2 flasks in serum-containing medium and cultured overnight. Serum-containingmedium was removed and the cell monolayers were washed twice with DMEM/ITS (DMEM containing insulin (5 μg/mL), transferrin (5 μg/mL), and selenium (5 ng/mL)). The resultant cells were fed with 3 mL of DMEM/ITS and additives as described in the Examples for two 24 hour periods. Conditioned media samples were collected at 24 hours and cells were refed with fresh DMEM/ITS containing the described additives for an additional 24 hours. Conditioned media samples were centrifuged to remove cells and debris then frozen at -20° C. until use. Freeze and thaw cycles of the conditioned media were limited to no more than two.
A2058 human melanoma cells, human HT1080 fibrosarcoma cells, and OVCAR3 human ovarian cancer cells were incubated with increasing concentrations of compound 1 (0.2-20 μM) or DMSO control (0.05%) and subjected to gelatin zymography. Aliquots of conditioned medium (15 μL) were electrophoresed on gelatin-containing 10% PAGE gels under nonreducing but denaturing conditions. These conditions allow the different gelatin-degrading species (MMPs) to separate by size. The enzymes renature after removal of the SDS by incubation of the gel with 2.5 % Triton X-100, and degrade the gelatin substrate present in the polyacrylamide gel upon overnight incubation in low salt collagenase buffer. Bands of clearing, seen after Coomassie blue staining correspond to areas of gelatinase activity.
as §4
Lane 1 is the control resulting from treatment of the cells with 0.1% DMSO. Lanes 2 and 3 correspond to those cells which are treated with 2 μM compound 1 in the absence of TGF-β1 for 24 and 48 hours, respectively. Lane 4 corresponds to cells which have been treated with TGF-β1 in the absence of compound 1. Lane 5 corresponds to cells which have been treated with TGF-β1 for 48 hours with compound 1 being added to the incubation mixture for the final 24 hours. Lane 6 corresponds to cells which have been treated for 48 hours with both TGF-β1 and compound 1.
*The control band was defined as 100% gelatinase activity and the other
bands were normalized to it. Numbers reflect triplicate measurements from
each zymogram band of representative zymograms. Standard deviations, not

MMP-2 [6] = test: Western immunoblot of MMP-2 species in conditioned media; assay type: cell-based, human
Protocol: as §5
This example illustrates the dose-dependent effects of compound 1 on the presence of MMP-2 and its activated species. Western immunoblots were used to detect the effect of compound 1 on the presence of MMP-2 and its activated species and for crude quantitation of MMP-2 presence.
as §3

NC(=O)c1nnn(Cc2cc(Cl)c(C(=O)c3ccc(Cl)cc3)c(Cl)c2)c1N [Compound 1, 5-amino-l-(4-(4-chlorobenzoyl)-3,5-dichlorobenzyl)-1,2,3-triazole-4-carboxamide]
mechanism not due to calcium chelation [1]: not due to calcium chelation
gelatinase activity of enzymes in isolation ([1]; compound 1 in zymogram incubation buffer, 20 μM, A2058 and HT1080 media): lack of reduction of gelatinolytic activity in conditioned medium; also recorded: does not inhibit gelatinase activity of the metalloproteinases; also recorded: did not effect its activity in isolation
calcium influx inhibition [2]: inhibits receptor-operated and voltage-gated calcium influx; also recorded: inhibit receptor-stimulated and voltage-gatedcalcium entry across cell membranes
expression of type IV collagenase/gelatinase A MMP-2 (MMP-2 [3]): inhibits the expression
inhibition in MMP-2 transcription (MMP-2 [3]; 24 hr): greater than 50%
inhibition in MMP-2 transcription (MMP-2 [3]; 48 hr): greater than 50%
expression of interstitial collagenase MMP-1 (MMP-1): inhibits the expression of interstitial collagenase MMP-1
inhibition of MMP-2 (immunoblot) (MMP-2 [4]): inhibits MMP-2 in a time-dependent manner
antiproliferative and antimetastatic activities [5]: antiproliferative and antimetastatic activities
gelatinase activity, 92 kDa (MMP-9; with TGF-β, 2 μM compound 1, 24 hr): 78%
gelatinase activity, 92 kDa (MMP-9; with TGF-β, 2 μM compound 1, 48 hr): 14%
gelatinase activity, 92 kDa (MMP-9; without TGF-β, 2 μM compound 1, 24 hr): 73%
gelatinase activity, 92 kDa (MMP-9; without TGF-β, 2 μM compound 1, 48 hr): 12%
presence of the MMP-2 species (MMP-2 [6]; A2058 and HT1080, FIG. 4): dose-dependent reduction of the presence of the MMP-2 species
presence of the MMP-2 species (MMP-2 [6]; A2058 and HT1080, FIG. 4, listed as compound 1): dose-dependent
presence of the MMP-2 species (MMP-2 [6]; after incubation with 20 μM compound 1): more complete reduction of all species
shift of MMP-2 species (MMP-2 [6]; before more complete reduction of all species): shift to the lower molecular weight activated species
